Test results as given in paper PMC11025096, “Universal Glycosyltransferase Continuous Assay for Uniform Kinetics and Inhibition Database Development and Mechanistic Studies Illustrated on ST3GAL1, C1GALT1, and FUT1” (ACS Omega, 2024).
One block for each compound: values may come before it.

Assays:
[1] = target: T1, CMK (cytidylate kinase) (Escherichia coli, UniProt P0A6I0); assay: coupled PK/LDH NADH fluorescence progress curves over CMP serial dilution; type: biochemical
T1 sequence (P0A6I0 1-227): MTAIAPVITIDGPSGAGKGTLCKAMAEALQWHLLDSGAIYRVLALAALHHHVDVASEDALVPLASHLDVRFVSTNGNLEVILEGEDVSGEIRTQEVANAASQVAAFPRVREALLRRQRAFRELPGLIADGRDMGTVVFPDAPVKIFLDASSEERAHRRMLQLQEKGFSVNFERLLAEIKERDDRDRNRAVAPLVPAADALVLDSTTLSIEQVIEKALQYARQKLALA

[2] = target: T2, FUT1 (Homo sapiens, UniProt P19526); assay: donor at fixed saturating concentration in UGC continuous coupled assay (NDK/PK/LDH); type: biochemical
T2 construct: pGEn2 construct expressed in HEK293F; tag removed with TEV protease
T2 sequence (P19526 1-365): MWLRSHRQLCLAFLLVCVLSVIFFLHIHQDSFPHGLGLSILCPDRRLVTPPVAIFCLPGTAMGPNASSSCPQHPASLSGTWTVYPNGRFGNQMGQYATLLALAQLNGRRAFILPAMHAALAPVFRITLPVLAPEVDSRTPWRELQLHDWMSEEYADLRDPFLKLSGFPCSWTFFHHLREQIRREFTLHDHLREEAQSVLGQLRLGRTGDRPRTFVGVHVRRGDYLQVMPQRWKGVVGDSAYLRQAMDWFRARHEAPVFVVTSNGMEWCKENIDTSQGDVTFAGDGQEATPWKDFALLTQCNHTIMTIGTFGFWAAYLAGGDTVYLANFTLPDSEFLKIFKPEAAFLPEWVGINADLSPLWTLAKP

[3] = target: T2, FUT1; assay: UGC continuous coupled NADH fluorescence assay, […] min enzyme-inhibitor preincubation, dose response; type: biochemical
[4] = target: T3, C1GALT1 (Homo sapiens, UniProt Q9NS00); assay: biochemical; parameters: UGC coupled continuous assay, NADH fluorescence depletion, 30 min enzyme-inhibitor preincubation, 37 °C; conditions: acceptor 2x Km, donor 0.5x Km; rate at 5 min; extrapolated; read-out: Log IC50 (M) C1GALT1 (converted)
T3 construct: pGEn2 construct expressed in HEK293F (coexpressed with chaperone C1GALT1C1); tag removed with TEV protease
Protocol: (§1) Soyasaponin 1 stock solution was prepared at 1.25 mM in 2% (v/v) Triton X-100 and 10% (v/v) DMSO. Inhibition assays were performed following a method similar to that used in the kinetics study. The master mixtures included all of the components except for the inhibitor and the enzyme. A 2-fold serial dilution from the inhibitor’s stock solution was prepared in a blank solution containing 2 and 10% (v/v) Triton X-100 and DMSO, respectively. The enzyme and the inhibitor were mixed, distributed to the wells, and preincubated for 30 min at 37 °C. A 10 min incubation period was also carried out at 37 °C for the master mixture, and the reaction was initiated by adding the master mixture to the wells. […] The effect of the activity percentage was calculated at each concentration of the inhibitor as follows [drawing 1] where SI, S100, S0 are the absolute values of the slopes from the progress curves of the reaction with inhibitor, […] respectively. IC50 and pIC50 (−log IC50 in molar concentration) values were calculated as depicted in Tables S3 and S4 (Supporting Information). Rates for the comparative dose response were calculated for each enzyme at the last time point where the uninhibited reaction maintained its linearity. […] Time and dose dependent inhibition was measured at varying concentrations of Soyasaponin 1. […]

[5] = target: T4, ST3GAL1 (Homo sapiens, UniProt Q11201); assay: biochemical; parameters: UGC coupled continuous assay, NADH fluorescence depletion, 30 min enzyme-inhibitor preincubation, 37 °C; conditions: acceptor and donor at Km; 20 min; read-out: Log IC50 (M) 20 Minutes (converted)
T4 construct: pGEn2 construct expressed in HEK293F; tag removed with TEV protease
T4 sequence (Q11201 1-340): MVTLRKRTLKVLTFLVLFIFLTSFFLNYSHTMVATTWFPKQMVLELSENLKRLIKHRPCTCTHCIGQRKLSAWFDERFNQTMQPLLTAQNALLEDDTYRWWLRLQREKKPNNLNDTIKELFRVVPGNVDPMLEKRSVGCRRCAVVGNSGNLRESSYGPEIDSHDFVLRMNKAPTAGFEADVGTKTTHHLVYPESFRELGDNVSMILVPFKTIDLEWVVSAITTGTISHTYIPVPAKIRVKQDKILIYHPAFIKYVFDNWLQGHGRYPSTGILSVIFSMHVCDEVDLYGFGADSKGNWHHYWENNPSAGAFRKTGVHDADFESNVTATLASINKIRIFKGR
Protocol: as §1

[6] = target: T4, ST3GAL1; assay: UGC continuous coupled NADH fluorescence assay, […] min enzyme-inhibitor preincubation, dose response; type: biochemical
[7] = target: T2, FUT1; assay: Michaelis-Menten kinetics, UGC continuous coupled assay (NDK/PK/LDH); type: biochemical
[8] = target: T4, ST3GAL1; assay: Michaelis-Menten kinetics, UGC continuous coupled assay (CMK/NDK/PK/LDH); type: biochemical

T3 sequence (Q9NS00 whole entry): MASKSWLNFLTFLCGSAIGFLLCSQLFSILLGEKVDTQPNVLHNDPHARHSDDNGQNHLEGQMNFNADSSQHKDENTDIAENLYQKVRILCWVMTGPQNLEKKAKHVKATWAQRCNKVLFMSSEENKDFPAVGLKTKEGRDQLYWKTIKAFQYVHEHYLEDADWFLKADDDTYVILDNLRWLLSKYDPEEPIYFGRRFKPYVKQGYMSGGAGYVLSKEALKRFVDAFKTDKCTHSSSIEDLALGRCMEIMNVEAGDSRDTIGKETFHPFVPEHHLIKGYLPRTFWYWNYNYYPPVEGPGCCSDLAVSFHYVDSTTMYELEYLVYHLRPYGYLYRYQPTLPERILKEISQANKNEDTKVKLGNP

Michaelis-Menten kinetics, UGC continuous coupled assay (NDK/PK/LDH) [7]: 152 min^–1 (kcat)
Structure (SMILES): CC(=O)N[C@H]1[C@@H](OCc2ccccc2)O[C@H](CO)[C@H](O)[C@@H]1O[C@@H]1O[C@H](CO)[C@H](O)[C@H](O)[C@H]1O [T-Bn]

Michaelis-Menten kinetics, UGC continuous coupled assay (CMK/NDK/PK/LDH) [8]: 195 min^–1 (kcat)
Structure (SMILES): CC(=O)N[C@H]1C(O)O[C@H](CO)[C@H](O)[C@@H]1O[C@@H]1O[C@H](CO)[C@H](O)[C@H](O)[C@H]1O (stereo partly drawn) [galacto-N-biose]

Michaelis-Menten kinetics, UGC continuous coupled assay (NDK/PK/LDH) [7]: 357 min^–1 (kcat)
Structure (SMILES): CC(=O)N[C@H]1C(O)O[C@H](CO)[C@@H](O)[C@@H]1O[C@@H]1O[C@H](CO)[C@H](O)[C@H](O)[C@H]1O (stereo partly drawn) [lacto-N-biose]

More lines, now with the values behind:

Structure (SMILES): Nc1ccn([C@@H]2O[C@H](COP(=O)(O)O)[C@@H](O)[C@H]2O)c(=O)n1 [CMP]
coupled PK/LDH NADH fluorescence progress curves over CMP serial dilution [1]: the initial instant phosphorylation of CMP to CDP via CMK followed by a slower phosphorylation of CDP via PK

Structure (SMILES): C[C@@H]1O[C@H](OP(=O)(O)OP(=O)(O)OC[C@H]2O[C@@H](n3cnc4c(=O)[nH]c(N)nc43)[C@H](O)[C@@H]2O)[C@@H](O)[C@H](O)[C@@H]1O [GDP-Fuc]
donor at fixed saturating concentration in UGC continuous coupled assay (NDK/PK/) [2]: Kinetics parameters for FUT1 were calculated with a saturation concentration of the donor GDP-Fuc and variable concentrations of the acceptors

Structure (SMILES): C[C@@H]1O[C@@H](O[C@H]2[C@H](O[C@H]3[C@H](O[C@H]4CC[C@@]5(C)[C@@H](CC[C@]6(C)[C@@H]5CC=C5[C@@H]7CC(C)(C)C[C@@H](O)[C@]7(C)CC[C@]56C)[C@@]4(C)CO)O[C@H](C(=O)O)[C@@H](O)[C@@H]3O)O[C@H](CO)[C@H](O)[C@@H]2O)[C@H](O)[C@H](O)[C@H]1O [Soyasaponin1]
IC50 [3]: 52 µM
IC50 [4]: 0.000367 M
IC50 [5]: 5.87e-05 M
IC50 [6]: 31 µM
